{
  "source": "patent US20230041980A1",
  "about": "“METHOD OF PROTECTING A RESPIRATORY TRACT OR A LUNG FROM DAMAGE, METHOD OF PROTECTING A LUNG FROM PRESSURE DAMAGE INDUCED BY A VENTILATOR, METHOD OF SUPPRESSING SPREAD OF INFECTION WITH VIRUSES OR BACTERIA THAT CAUSE PNEUMONIA IN PULMONARY BRONCHIAL EPITHELIAL CELLS OR ALVEOLAR EPITHELIAL CELLS, AND …” (NEXT21 KABUSHIKI KAISHA, priority 2020, published 2023)",
  "key": {"IgE antibody": {"tested_on": "IgE antibody", "test": "IgE antibody levels in serum of OVA asthma model mice", "type": "in vivo, BALB/c mice", "conditions": "10% trehalose by inhalation 20 min daily, day 27-31, OVA/OVA+Treh vs OVA/OVA, P<0.05", "protocol": "Asthma model mice were produced using BALB/c mice (8 to 10 weeks old) and ovalbumin (OVA) serving as an antigen, and examinations were conducted by administering trehalose by inhalation. On the first day and the fourteenth day, a physiological saline solution or OVA was intraperitoneally administered. 20 micrograms of OVA was administered to one mouse using aluminum hydroxide as an adjuvant. From the twenty-seventh day to the thirty-first day, 10% trehalose or distilled water was administered by inhalation for 20 minutes every day. Moreover, from the twenty-eighth day to the thirtieth day, a physiological saline solution or 1% OVA was administered by inhalation for 20 minutes, 1 to 1.5 hours after the above-mentioned inhalation. On the thirty-second day, evaluation was conducted using an assay system for evaluating allergic airway inflammation and hyperresponsive airway. FIGS. 1A and 1B show the measurement results of the IgE antibodylevels in the serum. […] Suppressing the production of IgE antibodies makes it possible to suppress an increase in the severity of pulmonary tissue lesion caused by cytokine storm, which is an overreaction of the immune system caused by chemical mediators from mast cells. […]"}, "Asthma model mice": {"tested_on": "Asthma model mice", "test": "Numbers of inflammation-inducing cells in bronchoalveolar lavage fluid", "type": "in vivo, BALB/c mice", "conditions": "inhalation; compared with OVA/OVA; FIG. 4", "protocol": "(§1) Asthma model mice were produced using BALB/c mice (8 to 10 weeks old) and ovalbumin (OVA) serving as an antigen, and examinations were conducted by administering trehalose by inhalation. On the first day and the fourteenth day, a physiological saline solution or OVA was intraperitoneally administered. 20 micrograms of OVA was administered to one mouse using aluminum hydroxide as an adjuvant. From the twenty-seventh day to the thirty-first day, 10% trehalose or distilled water was administered by inhalation for 20 minutes every day. Moreover, from the twenty-eighth day to the thirtieth day, a physiological saline solution or 1% OVA was administered by inhalation for 20 minutes, 1 to 1.5 hours after the above-mentioned inhalation. On the thirty-second day, evaluation was conducted using an assay system for evaluating allergic airway inflammation and hyperresponsive airway. Bronchoalveolar lavage was performed on the model mice of Example 1, and the numbers of various cells obtained through the bronchoalveolar lavage were compared and examined. It should be noted that, in this example, 0.5 mL of a physiological saline solution containing 50 μg of ovalbumin (OVA) and 1 mg of aluminum hydroxide gel serving as an adjuvant was administered to OVA-administration mice (OVA/OVA) every 12 days. […]"}, "IL-4": {"tested_on": "IL-4", "test": "IL-4 level in bronchoalveolar lavage fluid (ELISA)", "type": "in vivo, BALB/c mice", "conditions": "OVA/OVA+Treh vs OVA/OVA, FIG. 5A", "protocol": "as §1, with “examined. […] The cytokine levels in the bronchoalveolar lavage fluids obtained in Example 4 were measured using an ELISA measurement kit. […]” for “examined.”, “that interferon (IFN-γ) was not detected from any” for “that, in this example, 0.5 mL”, “the groups.” for “a physiological saline solution containing 50 μg of ovalbumin (OVA) and 1 mg of aluminum hydroxide gel serving as an adjuvant was administered to OVA-administration mice (OVA/OVA) every 12 days.”"}, "IL-5": {"tested_on": "IL-5", "test": "IL-5 level in bronchoalveolar lavage fluid (ELISA)", "type": "in vivo, BALB/c mice", "conditions": "OVA/OVA+Treh vs OVA/OVA, FIG. 5B", "protocol": "as §1, with “examined. […] The cytokine levels in the bronchoalveolar lavage fluids obtained in Example 4 were measured using an ELISA measurement kit. […]” for “examined.”, “that interferon (IFN-γ) was not detected from any” for “that, in this example, 0.5 mL”, “the groups.” for “a physiological saline solution containing 50 μg of ovalbumin (OVA) and 1 mg of aluminum hydroxide gel serving as an adjuvant was administered to OVA-administration mice (OVA/OVA) every 12 days.”"}, "IL-1α": {"tested_on": "IL-1α", "test": "IL-1α induced by homogenized cell lysate (ELISA)", "type": "cell-based", "conditions": "lysate homogenized in 10% aqueous trehalose vs saline; RAW264.7 cells, 8 hours; FIG. 7B"}, "prostaglandin E2": {"tested_on": "prostaglandin E2", "test": "Prostaglandin E2 induced by homogenized cell lysate (EIA)", "type": "cell-based", "conditions": "lysate homogenized in 10% aqueous trehalose vs saline; RAW264.7 cells, 8 hours; FIG. 7C"}, "TNF-α": {"tested_on": "TNF-α", "test": "TNF-α induced by heat-shocked dead cell solution (ELISA)", "type": "cell-based", "conditions": "10% aqueous trehalose vs saline added to cell solution (53° C. 10 minutes); RAW264.7 cells, 8 hours; FIG. 7E", "protocol": "Moreover, RAW264.7 cells cultured in a 225-cm^2 flask were collected, and heat shock was applied to the cells at 53° C. for 10 minutes. Then, the cells were left to stand at 37° C. for 5 hours to induce cell death, and the resulting solution was used as a cell solution. Thereafter, a physiological saline solution (saline) or a 10% aqueous solution of trehalose (trehalose) was added to the cell solution, and the resulting solution was treated on ice for 30 minutes. The above-mentioned cell solution was added to RAW264.7 cells that were being cultured in 6 wells, and the cells were cultured for another 8 hours. Then, TNF-α was measured using ELISA (manufactured by R&D Systems).\nIn this test, the cell solution including dead cells induced by heat shock was used as a model of cell disruption caused by a burn."}, "[1]": {"tested_on": "oral epithelial cell line (Ca9-22)", "test": "LIVE/DEAD assay after drying stimulus", "type": "cell-based", "conditions": "7.5% trehalose pretreatment 15 minutes, dried 7 minutes, FIG. 8A"}},
  "data": [
    {"smiles": "OC[C@H]1O[C@H](O[C@H]2O[C@H](CO)[C@@H](O)[C@H](O)[C@H]2O)[C@H](O)[C@@H](O)[C@@H]1O", "note": "[trehalose]", "values": [
      {"measurement": "total IgE level in serum", "setting": "IgE antibody; FIG. 1A", "result": "significantly reduce the production amount of IgE"},
      {"measurement": "level of IgE specific to the antigen (ovalbumin) in serum", "setting": "IgE antibody; FIG. 1B", "result": "significantly reduce the production amount of IgE"},
      {"measurement": "numbers of inflammation-inducing cells in bronchoalveolar lavage fluid (Total, Mo, Ly, Eo, Nt)", "setting": "Asthma model mice", "result": "significantly reduced cell release"},
      {"measurement": "IL-4 level in bronchoalveolar lavage fluid", "setting": "IL-4", "result": "significantly suppress the expression of cytokines"},
      {"measurement": "IL-5 level in bronchoalveolar lavage fluid", "setting": "IL-5", "result": "significantly suppress the expression of cytokines"},
      {"measurement": "IL-1α level induced by cell lysate", "setting": "IL-1α", "result": "significantly reduced"},
      {"measurement": "prostaglandin E2 level induced by cell lysate", "setting": "prostaglandin E2", "result": "significantly reduced"},
      {"measurement": "TNF-α level induced by heat-shocked cell solution", "setting": "TNF-α", "result": "significantly reduced"},
      {"measurement": "cell death caused by drying stimulus (LIVE/DEAD assay)", "setting": "[1]", "result": "suppresses cell death caused by drying stimulus"}
    ]}
  ]
}
